In patent publication US6906205B2, “Spiro and dispiro 1,2,4-trioxolane antimalarials” (Medicines for Malaria Venture MMV, priority 2002, dated 2005):
≈ marks a conversion by molar mass, not a printed value.

Legend:
[1] = system: P. falciparum K1 strain (Thailand resistant to chloroquine); test: semiautomated microdilution assay, [3H]-hypoxanthine incorporation, K1 strain; type: cell-based, Plasmodium falciparum; conditions: K1 strain, 72 h incubation; for IC50: Plasmodium falciparum, read-out: IC50 (ng/ml) K1
Protocol: (§1) Various OZ compounds were tested by the semiautomated microdilution assay against intraerythrocytic forms of Plasmodium falciparum derived from asynchronous stock cultures.
(§2) Fifty percent inhibitory concentration (IC50) were estimated by Logit regression analysis.

[2] = system: P. falciparum NF54 strain (sensitive to standard antimalarials); test: semiautomated microdilution assay, [3H]-hypoxanthine incorporation, NF54 strain; type: cell-based, Plasmodium falciparum; conditions: NF54 strain, 72 h incubation; for IC50: Plasmodium falciparum, read-out: IC50 (ng/ml) NF54
Protocol: as §1, §2

[3] = system: ANKA strain of P. berghei; test: single dose STI in vivo screen in infected mice; parameters: species or system Plasmodium berghei; conditions: for Activity (%) po / Activity (%) sc / Activity (%) SSVpo: percent reduction in parasitemia day 3 post-infection, mice; for Activity (%) po / Survival (days) po: single 10 mg/kg po in 3% ethanol and 7% Tween 80; for Activity (%) sc / Survival (days) sc: single 10 mg/kg sc in 3% ethanol and 7% Tween 80; for Survival (days) po / Survival (days) sc / Survival (days) SSVpo: untreated control 5.6 ± 0.3; for Activity (%) SSVpo: single po dose in standard suspending vehicle (SSV); for Survival (days) SSVpo: single po dose in SSV
Summary of the method: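 Groups of 3-5 Moro SPF or NMRI mice infected with the ANKA strain of P. berghei received a single dose of trioxolane on day one post-infection. The compound was given in 3% ethanol and 7% Tween 80 or in SSV (0.5% w/v CMC, 0.5% v/v benzyl alcohol, 0.4% v/v Tween 80, 0.9% w/v sodium chloride in water). Antimalarial activity was scored as percent reduction in parasitemia on day three and as survival time versus untreated controls. Survival to day 30 counted as cure.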

| Compound | IC50 (ng/ml) K1 [1] | IC50 (ng/ml) NF54 [2] | Activity (%) po [3] | Activity (%) sc [3] | Survival (days) po [3] | Survival (days) sc [3] | IC50 [1] [ng/mL] | IC50 [2] [ng/mL] | Activity (%) SSVpo [3] [%] | Survival (days) SSVpo [3] [days] |
| --- | --- | --- | --- | --- | --- | --- | --- | --- | --- | --- |
| Cc1ccc(S(=O)(=O)N2CCC3(CC2)OOC2(O3)C3CC4CC(C3)CC2C4)cc1 (stereo not shown) [OZ51] | 2.5/2.5 ng/ml | 2.5/2.5 ng/ml | 89% | 100% | 7.0 days | 14 days |  |  |  |  |
| c1ccc(CC2(Cc3ccccc3)OOC3(O2)C2CC4CC(C2)CC3C4)cc1 (stereo not shown) [OZ52] | 3.1 ng/mL (≈ 8.23 nM) | 3.0 ng/mL (≈ 7.97 nM) | 88% | 99.7% | 6.7 days | 8.0 days |  |  |  |  |
| O=C(O)CON=C1CCC2(CC1)OOC1(O2)C2CC3CC(C2)CC1C3 (stereo not shown) [OZ54] | 32 ng/mL (≈ 91.1 nM) | 35 ng/mL (≈ 99.6 nM) | 85% | 97% | 7.0/NA/7.0 days | 7.0/NA/7.0 days |  |  |  |  |
| O=S(=O)(c1ccc(Cl)cc1)N1CCC2(CC1)OOC1(O2)C2CC3CC(C2)CC1C3 (stereo not shown) [OZ57] | 3.1 ng/mL (≈ 7.05 nM) | 2.8 ng/mL (≈ 6.36 nM) | 32% | 98.4% | 6.0 days | 7.7 days |  |  |  |  |
| O=C(O)CCC(=O)N1CCC2(CC1)OOC1(O2)C2CC3CC(C2)CC1C3 (stereo not shown) [OZ58] | 7.1 ng/mL (≈ 19.4 nM) | 7.2 ng/mL (≈ 19.7 nM) | 39% | 52% | 6.0 days | 6.3 days |  |  |  |  |
| COc1ccc(S(=O)(=O)N2CCC3(CC2)OOC2(O3)C3CC4CC(C3)CC2C4)cc1 (stereo not shown) [OZ59] | 1.4 ng/mL (≈ 3.21 nM) | 1.3 ng/mL (≈ 2.98 nM) | 51% | 99.95% | 6.0 days | 10.0 days |  |  |  |  |
| O=S(=O)(c1ccccc1)N1CCC2(CC1)OOC1(O2)C2CC3CC(C2)CC1C3 (stereo not shown) [OZ60] | 1.1 ng/mL (≈ 2.71 nM) | 1.2 ng/mL (≈ 2.96 nM) | 71% | 100% | 6.0 days | 10.3 days |  |  |  |  |
| CCOC(=O)CC1CCC2(CC1)OOC1(O2)C2CC3CC(C2)CC1C3 (stereo not shown) [OZ61] |  |  | 91% | 96% | 7.0 days | 7.3 days | 0.52 (≈ 1.48 nM) | 0.53 (≈ 1.51 nM) |  |  |
| c1ccc(C2CCC3(CC2)OOC2(CCC(c4ccccc4)CC2)O3)cc1 (stereo not shown) [OZ62] | 33 ng/mL (≈ 90.5 nM) | 28 ng/mL (≈ 76.8 nM) | 0/NA/0% | 0/NA/0% | 6.0 days | 5.0 days |  |  |  |  |
| N#CC1(c2ccccc2)CCC2(CC1)OOC1(O2)C2CC3CC(C2)CC1C3 (stereo not shown) [OZ63] | 1.6/1.6 ng/ml | 1.6/1.6 ng/ml | 99.62% | 99.91% | 7.3 days | 9.3 days |  |  | 65 | 6.0 |
| CC(C)(C)COC(=O)C1CCC2(CC1)OOC1(O2)C2CC3CC(C2)CC1C3 (stereo not shown) [OZ64] | 1.5 ng/mL (≈ 3.96 nM) | 1.3 ng/mL (≈ 3.43 nM) | 95% | 98% | 7.3 days | 8.0 days |  |  |  |  |
| O=S(=O)([O-])OC1CCC2(CC1)OOC1(O2)C2CC3CC(C2)CC1C3.[Na+] (stereo not shown) [OZ65] | 57 ng/mL | 65 ng/mL | 0% | 1% | 5.0/NA/5.0 days | 5.0/NA/5.0 days |  |  |  |  |
| Fc1ccc(C2(c3ccc(F)cc3)OOC3(CCC(c4ccccc4)CC3)O2)cc1 (stereo not shown) [OZ66] | 44 ng/mL (≈ 108 nM) | 36 ng/mL (≈ 88.1 nM) | 0/NA/0% | 0/NA/0% | 5.3 days | 5.7 days |  |  |  |  |
| CC(=O)OC1(c2ccc(F)cc2)CCC2(CC1)OOC1(O2)C2CC3CC(C2)CC1C3 (stereo not shown) [OZ69] | 1.6 ng/mL (≈ 3.84 nM) | 1.4 ng/mL (≈ 3.36 nM) | 56% | 40% | 6.3/NA/6.3 days | 6.3/NA/6.3 days |  |  |  |  |
| CCOC(=O)C1CCC2(CC1)OOC1(O2)C2CC3CC(C2)CC1C3 (stereo not shown) [OZ70] |  |  | 98% | 94% | 7.7/NA/7.7 days | 7.7/NA/7.7 days | 1.2 (≈ 3.57 nM) | 1.1 (≈ 3.27 nM) |  |  |
| CCN(CC)C(=O)C1CCC2(CC1)OOC1(O2)C2CC3CC(C2)CC1C3 (stereo not shown) [OZ73] | 6.5 ng/mL (≈ 17.9 nM) | 8.2 ng/mL (≈ 22.6 nM) | 27% | 36% | 6.0 days | 6.7 days |  |  |  |  |
| O=C(OC1CCC2(CC1)OOC1(O2)C2CC3CC(C2)CC1C3)c1ccccc1 (stereo not shown) [OZ74] | 2.3 ng/mL (≈ 5.98 nM) | 3.5 ng/mL (≈ 9.1 nM) | 63% | 99.97% | 6.3 days | 10.0 days |  |  |  |  |
| N#CC1(c2ccc(Cl)c(Cl)c2)CCC2(CC1)OOC1(O2)C2CC3CC(C2)CC1C3 (stereo not shown) [OZ75] | 2.4 ng/mL (≈ 5.53 nM) | 4.3 ng/mL (≈ 9.9 nM) | 77% | 5% | 7.3 days | 5.0 days |  |  |  |  |
| COC1(c2ccc(F)cc2)CCC2(CC1)OOC1(O2)C2CC3CC(C2)CC1C3 (stereo not shown) [OZ77] | 1.4 ng/mL (≈ 3.6 nM) | 2.2 ng/mL (≈ 5.66 nM) | 99.9% | 98% | 9.0 days | 8.3 days |  |  | 74 | 6.0 |
| CC(=O)OCC(=O)N1CCC2(CC1)OOC1(O2)C2CC3CC(C2)CC1C3 (stereo not shown) [OZ82] | 0.48 ng/mL (≈ 1.31 nM) | 1.2 ng/mL (≈ 3.28 nM) | 91% | 79% | 7.3 days | 7.0 days |  |  |  |  |
| c1ccc2c(c1)CCCC21OOC2(O1)C1CC3CC(C1)CC2C3 (stereo not shown) [OZ84] | 1.4 ng/mL (≈ 4.48 nM) | 2.1 ng/mL (≈ 6.72 nM) | 92% | 99.99% | 7.7 days | 14.7 days |  |  |  |  |
| c1ccc2c(c1)CCC1(C2)OOC2(O1)C1CC3CC(C1)CC2C3 (stereo not shown) [OZ85] | 0.86 ng/mL (≈ 2.75 nM) | 1.8 ng/mL (≈ 5.76 nM) | 34% | 99.7% | 6.0 days | 8.3 days |  |  |  |  |
| O=S(=O)(c1ccc(F)cc1)N1CCC2(CC1)OOC1(O2)C2CC3CC(C2)CC1C3 (stereo not shown) [OZ86] | 0.80 ng/mL (≈ 1.89 nM) | 2.0 ng/mL (≈ 4.72 nM) | 77% | 99.9% | 6.7 days | 11.3 days |  |  |  |  |
